Results from PMC10789121, “Amine Basicity of Quinoline ATP Synthase Inhibitors Drives Antibacterial Activity against Pseudomonas aeruginosa” (ACS Medicinal Chemistry Letters, 2023).
In brackets after ≈: the same amount, converted by molar mass. Several values for one entry are separate records, joined by “and”; a condition that tells them apart may be missing. Equal values may be shown once.

Biological target: T1, PA ATP synthase (Pseudomonas aeruginosa, UniProt Q9HT15)
T1 construct: a whole operon plasmid that expresses; made in house; host or cells: Escherichia coli DK8 (K-12 strain lacking the unc operon) transformed with pASH20; used as inverted membrane vesicles, not purified
Assay: Inhibition of NADH-driven PA ATP synthesis activity in DK8/pASH20 inverted membrane vesicles (end-point luciferin/luciferase assay)
Format: biochemical
Conditions: PA ATP synthase IC50 (absolute), NADH-driven ATP synthesis, EC DK8/pASH20 inverted membrane vesicles

| Structure (SMILES) | IC50 |
| --- | --- |
| CSc1nc2ccccc2cc1CNCCc1cnc[nH]1 [Compound 21] | 53.6 µM |
| c1ccc(CSc2nc3ccccc3cc2CNCCc2cnc[nH]2)cc1 [Compound 22] | ~5.34 µM and 5.34 µM |

Tested on: PA electron transport chain
Assay: Electron transport activity (ACMA fluorescence quenching) in PA 9027 inverted membrane vesicles
Format: biochemical, Pseudomonas aeruginosa
Conditions: PA 9027 inverted membrane vesicles
Excerpt: The assay for PA ATP synthase activity in EC DK8/pASH20 membrane vesicles requires a functional EC ETC, so potent inhibition of the EC ETC by any compound would interfere with the determination of its IC50 for PA ATP synthase. […] Furthermore, potent inhibition of PA ETC could be an alternative mechanism of action for the antibacterial activity of the current series.
(§1) Determination of electron transport activity. As previously described,11 inverted membrane vesicles from PA 9027 or E. coli DK8 pASH20 were added to HMK buffer containing 0.3 µg/mL 9-amino-6-chloro-2-methoxyacridine (ACMA) and 0-64 µg/mL test compound in DMSO. After measurement of baseline ACMA fluorescence for 60 s, redox-driven H+ pumping was initiated by addition of NADH to 0.8 mM, and fluorescence quenching was monitored for 120 s before addition of nigericin to 0.5 µg/mL. Relative activity is reported as the minimum fluorescence value normalized to the maximum fluorescence value following addition of nigericin.

| Structure (SMILES) | PA ETC IC50 [µg/mL] |
| --- | --- |
| CSc1nc2ccccc2cc1CNCCc1cnc[nH]1 [Compound 21] | 39 |
| c1ccc(CSc2nc3ccccc3cc2CNCCc2cnc[nH]2)cc1 [Compound 22] | 15 |

Tested on: EC electron transport chain
Assay: Electron transport activity (ACMA fluorescence quenching) in E. coli DK8 pASH20 inverted membrane vesicles
Format: biochemical, Escherichia coli
Conditions: 4 µg/mL
Method: as §1

| Structure (SMILES) | % EC ETC Inhibition at 4 µg/mL [%] |
| --- | --- |
| CSc1nc2ccccc2cc1CNCCc1cnc[nH]1 [Compound 21] | 5 |

Same assay, conditions: E. coli DK8 pASH20 inverted membrane vesicles

| Structure (SMILES) | EC ETC IC50 [µg/mL] |
| --- | --- |
| c1ccc(CSc2nc3ccccc3cc2CNCCc2cnc[nH]2)cc1 [Compound 22] | 14 |

Tested on: PA 9027
Assay: Antimicrobial susceptibility, broth microdilution MIC
Format: cell-based
Conditions: Pseudomonas aeruginosa, read-out: MIC PA 9027
Method: (§2) Pseudomonas aeruginosa (ATCC 9027), Drug-Resistant Pseudomonas aeruginosa from ATCC Panel MP-23 (BAA-2108, BAA-2109, BAA-2110), and Pseudomonas aeruginosa efflux knockout GKCW120 (PD6)14 provided by Zgurskaya and co-workers at the University of Oklahoma.
(§3) Antimicrobial Susceptibility Assay Procedure. Susceptibility testing was performed in biological triplicate, using the broth microdilution method as outlined by the Clinical and Laboratory Standards Institute. Briefly, minimum inhibitory concentrations (MIC) determinations were carried out in 96-well microtiter plates with 2-fold serial dilutions of the compounds from 0 […]
(§4) Briefly, to each well 1 µL of compound in DMSO, 89 µL of TSB, and 10 µL of bacterial inoculum, grown from frozen stock in 10 mL of TSB […]
(§5) for 4-6 hours, were added. […]
(§6) on a Biotek Synergy HTX Multi-mode plate reader. Data was processed by background subtracting the media absorbance and then normalizing the data to full bacterial growth with only vehicle.
(§7) MIC is defined as the lowest concentration of antibiotic or antibiotic/adjuvant combination that achieves ≥ 85% growth inhibition, which corresponds to no visible growth. […]

| Structure (SMILES) | MIC [µg/mL] |
| --- | --- |
| c1ccc(CSc2nc3ccccc3cc2CNCCc2cnc[nH]2)cc1 [Compound 22] | > 128 |
| CNC(C)C1CCC(N)C(OC2C(N)CC(N)C(OC3OCC(C)(O)C(NC)C3O)C2O)O1 (centres unmarked) [gentamicin, reference compound] | 2 to 4 |

Same assay, conditions: Pseudomonas aeruginosa; >85% reduction in growth at OD 590 nm; n = 3; read-out: MIC PA 9027

| Structure (SMILES) | MIC [µg/mL] |
| --- | --- |
| O=C(N[C@H](CO)[C@H](O)c1ccc([N+](=O)[O-])cc1)C(Cl)Cl [chloramphenicol, reference compound] | 128 |

Tested on: PΔ6 (efflux knockout strain of PA)
Assay: as above
Format: cell-based
Conditions: Pseudomonas aeruginosa, read-out: MIC PΔ6
Method: as §2, §3, §4, §5, §6, §7

| Structure (SMILES) | MIC [µg/mL] |
| --- | --- |
| c1ccc(CSc2nc3ccccc3cc2CNCCc2cnc[nH]2)cc1 [Compound 22] | 16 |
| O=C(N[C@H](CO)[C@H](O)c1ccc([N+](=O)[O-])cc1)C(Cl)Cl [chloramphenicol, reference compound] | 4 |
| CNC(C)C1CCC(N)C(OC2C(N)CC(N)C(OC3OCC(C)(O)C(NC)C3O)C2O)O1 (centres unmarked) [gentamicin, reference compound] | > 4 |

Tested on: BAA 2108 (MDRPA clinical isolate)
Assay: as above
Format: cell-based, Pseudomonas aeruginosa
Conditions: >85% reduction in growth at OD 590 nm; n = 3
Method: as §2, §3, §4, §5, §6, §7

| Structure (SMILES) | MIC BAA 2108 |
| --- | --- |
| c1ccc(CSc2nc3ccccc3cc2CNCCc2cnc[nH]2)cc1 [Compound 22] | displayed antibacterial activity |

Same assay, conditions: Pseudomonas aeruginosa, BAA2108; >85% reduction in growth at OD 590 nm; n = 3; read-out: MIC BAA 2108

| Structure (SMILES) | MIC [µg/mL] |
| --- | --- |
| c1ccc(CSc2nc3ccccc3cc2CNCCc2cnc[nH]2)cc1 [Compound 22] | 32 |
| O=C(N[C@H](CO)[C@H](O)c1ccc([N+](=O)[O-])cc1)C(Cl)Cl [chloramphenicol, reference compound] | 32 |
| CNC(C)C1CCC(N)C(OC2C(N)CC(N)C(OC3OCC(C)(O)C(NC)C3O)C2O)O1 (centres unmarked) [gentamicin, reference compound] | 16 |

Tested on: BAA 2109 (MDRPA clinical isolate)
Assay: as above
Format: cell-based, Pseudomonas aeruginosa
Conditions: >85% reduction in growth at OD 590 nm; n = 3
Method: as §2, §3, §4, §5, §6, §7

| Structure (SMILES) | MIC BAA 2109 |
| --- | --- |
| c1ccc(CSc2nc3ccccc3cc2CNCCc2cnc[nH]2)cc1 [Compound 22] | displayed antibacterial activity |

Same assay, conditions: Pseudomonas aeruginosa, BAA2109; >85% reduction in growth at OD 590 nm; n = 3; read-out: MIC BAA 2109

| Structure (SMILES) | MIC [µg/mL] |
| --- | --- |
| c1ccc(CSc2nc3ccccc3cc2CNCCc2cnc[nH]2)cc1 [Compound 22] | 64 |
| O=C(N[C@H](CO)[C@H](O)c1ccc([N+](=O)[O-])cc1)C(Cl)Cl [chloramphenicol, reference compound] | 128 |
| CNC(C)C1CCC(N)C(OC2C(N)CC(N)C(OC3OCC(C)(O)C(NC)C3O)C2O)O1 (centres unmarked) [gentamicin, reference compound] | 2 |

Tested on: BAA 2110 (MDRPA clinical isolate)
Assay: as above
Format: cell-based, Pseudomonas aeruginosa
Conditions: Pseudomonas aeruginosa, BAA2110; >85% reduction in growth at OD 590 nm; n = 3; read-out: MIC BAA 2110
Method: as §2, §3, §4, §5, §6, §7

| Structure (SMILES) | MIC [µg/mL] |
| --- | --- |
| c1ccc(CSc2nc3ccccc3cc2CNCCc2cnc[nH]2)cc1 [Compound 22] | > 128 |
| O=C(N[C@H](CO)[C@H](O)c1ccc([N+](=O)[O-])cc1)C(Cl)Cl [chloramphenicol, reference compound] | 128 |
| CNC(C)C1CCC(N)C(OC2C(N)CC(N)C(OC3OCC(C)(O)C(NC)C3O)C2O)O1 (centres unmarked) [gentamicin, reference compound] | 4 to 8 |

Biological target: T1, PA ATP synthase
Assay: not given
Set-up: method as in PMID 37922420
Conditions: previously determined; cited from earlier work

| Structure (SMILES) | PA ATP synthase IC50 [µg/mL] | IC50 [µM] |
| --- | --- | --- |
| CSc1nc2ccccc2cc1CNCc1ccc(CN(C)C)cc1 [Compound 1] | 30 |  |
| CN(C)Cc1ccc(CNCc2cc3ccccc3nc2SCc2ccccc2)cc1 [Compound 2] |  | ~4.68 |

Tested on: PA electron transport chain
Assay: not given
Set-up: method as in PMID 37922420
Conditions: previously determined; cited from earlier work

| Structure (SMILES) | PA ETC IC50 [µg/mL] |
| --- | --- |
| CSc1nc2ccccc2cc1CNCc1ccc(CN(C)C)cc1 [Compound 1] | 29 |
| CN(C)Cc1ccc(CNCc2cc3ccccc3nc2SCc2ccccc2)cc1 [Compound 2] | 27 |

Tested on: PA 9027
Assay: not given
Set-up: method as in PMID 37922420
Conditions: cited from earlier work

| Structure (SMILES) | MIC PA 9027 [µg/mL] |
| --- | --- |
| CSc1nc2ccccc2cc1CNCc1ccc(CN(C)C)cc1 [Compound 1] | >256 |
| CN(C)Cc1ccc(CNCc2cc3ccccc3nc2SCc2ccccc2)cc1 [Compound 2] | >128 |

Tested on: PΔ6 (efflux knockout strain of PA)
Assay: not given
Set-up: method as in PMID 37922420
Conditions: cited from earlier work

| Structure (SMILES) | MIC PΔ6 [µg/mL] |
| --- | --- |
| CSc1nc2ccccc2cc1CNCc1ccc(CN(C)C)cc1 [Compound 1] | 64 to 128 |
| CN(C)Cc1ccc(CNCc2cc3ccccc3nc2SCc2ccccc2)cc1 [Compound 2] | 16 (≈ 37.4 µM) |

Tested on: BAA 2108 (MDRPA clinical isolate)
Assay: not given
Set-up: method as in PMID 37922420
Conditions: cited from earlier work

| Structure (SMILES) | MIC BAA 2108 [µg/mL] |
| --- | --- |
| CSc1nc2ccccc2cc1CNCc1ccc(CN(C)C)cc1 [Compound 1] | 128 to 256 |
| CN(C)Cc1ccc(CNCc2cc3ccccc3nc2SCc2ccccc2)cc1 [Compound 2] | 64 (≈ 150 µM) |

Tested on: BAA 2109 (MDRPA clinical isolate)
Assay: not given
Set-up: method as in PMID 37922420
Conditions: cited from earlier work

| Structure (SMILES) | MIC BAA 2109 [µg/mL] |
| --- | --- |
| CSc1nc2ccccc2cc1CNCc1ccc(CN(C)C)cc1 [Compound 1] | 256 (≈ 728 µM) |
| CN(C)Cc1ccc(CNCc2cc3ccccc3nc2SCc2ccccc2)cc1 [Compound 2] | >128 |

Tested on: BAA 2110 (MDRPA clinical isolate)
Assay: not given
Set-up: method as in PMID 37922420
Conditions: cited from earlier work

| Structure (SMILES) | MIC BAA 2110 [µg/mL] |
| --- | --- |
| CSc1nc2ccccc2cc1CNCc1ccc(CN(C)C)cc1 [Compound 1] | >256 |
| CN(C)Cc1ccc(CNCc2cc3ccccc3nc2SCc2ccccc2)cc1 [Compound 2] | >128 |

Tested on: not given
Assay: not given
Set-up: method as in earlier work
Conditions: value of the C2 functional group; cited from earlier work

| Structure (SMILES) | approximate pKa (NH+) of C2 side chain conjugate acid |
| --- | --- |
| CSc1nc2ccccc2cc1CNCCc1cnc[nH]1 [Compound 21] | ∼7 |
